# Measurements from patent US20060069132A1, “Azolecarboxamide herbicides” (priority 2004, published 2006).
# Key:
# [1] = system: small flower umbrella sedge; test: Test B flooded paddy test; format: in vivo, Cyperus difformis; details: 1000 g ai/ha, visual rating, scale 0 to 100 (0 no effect, 100 complete control), 13 to 15 days
# In short: (§1)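 Visual ratings, 0 (no effect) to 100 (complete control), made versus controls after 13–15 d greenhouse. Paddy plants treated at 2-leaf stage; postemergence plants at 1- to 4-leaf stage, 2–18 cm tall.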
# rice [2] = test: Test B pre-/postemergence herbicide test; format: in vivo, Oryza sativa; details: preemergence
# In short: (§2)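 Seeds were planted and treated preemergence with compounds formulated in a non-phytotoxic solvent mixture containing surfactant, while plants at the 1- to 4-leaf stage (2 to 18 cm) received postemergence sprays. Flooded paddy plants were grown to the 2-leaf stage. After 13 to 15 days in a greenhouse, injury was visually rated 0–100 against untreated controls.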
# velvetleaf [3] = test: Test B pre-/postemergence herbicide test; format: in vivo, Abutilon theophrasti
# In short: as §2
# ducksalad = test: Test B flooded paddy test; format: in vivo, Heteranthera limosa; details: 1000 g ai/ha, visual rating, scale 0 to 100 (0 no effect, 100 complete control), 13 to 15 days
# In short: as §1
# barnyardgrass [4] = test: Test B pre-/postemergence herbicide test; format: in vivo, Echinochloa crus-galli
# In short: (§3)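 Visual rating, 0 (no effect) to 100 (complete control), versus untreated controls after 13–15 d in greenhouse. Pre- and postemergence applications (postemergence plants 2–18 cm, 1–4 leaves); flooded paddy arm at 2-leaf stage. Compounds in non-phytotoxic solvent plus surfactant.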
# pigweed = test: Test B pre-/postemergence herbicide test; format: in vivo, Amaranthus retroflexus
# In short: as §2
# corn = test: Test B pre-/postemergence herbicide test; format: in vivo, Zea mays
# In short: as §2
# cocklebur = test: Test B pre-/postemergence herbicide test; format: in vivo, Xanthium strumarium
# In short: as §3
# wheat = test: Test B postemergence herbicide test; format: in vivo, Triticum aestivum; design: key to Wheat plant response rating: 0 = no effect, 100 = complete control; details: scale 0 (no effect) to 100 (complete control)
# In short: (§4)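 Plants grow to 1- to 4-leaf stage (2–18 cm) for postemergence spraying, or to 2-leaf stage for the paddy test. Formulated compound is applied. Greenhouse holding lasts 13–15 days. Response is scored visually relative to controls, 0 no effect to 100 complete control; a dash means no result.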
# rice [5] = test: Test B flooded paddy test; format: in vivo, Oryza sativa; details: 1000 g ai/ha, visual rating, scale 0 to 100 (0 no effect, 100 complete control), 13 to 15 days
# In short: as §1
# Surinam grass = test: Test B pre-/postemergence herbicide test; format: in vivo, Urochloa decumbens
# In short: as §2
# giant foxtail [6] = test: Test A pre-/postemergence herbicide test; format: in vivo, Setaria faberi
# In short: (§5)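 Visual injury rating on a 0–100 scale (0 no effect, 100 complete control) versus untreated controls, about ten days after treatment in greenhouse. Pre: directed soil spray onto seeded sandy loam. Post: spray to runoff on plants 2–10 cm tall at one- to two-leaf stage.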
# large crabgrass [7] = test: Test A pre-/postemergence herbicide test; format: in vivo, Digitaria sanguinalis
# In short: as §5
# wild oat = test: Test B postemergence herbicide test; format: in vivo, Avena fatua; details: scale 0 (no effect) to 100 (complete control)
# In short: as §4
# redroot pigweed = test: Test A pre-/postemergence herbicide test; format: in vivo, Amaranthus retroflexus
# In short: as §5
# barnyardgrass [8] = test: Test B flooded paddy test; format: in vivo, Echinochloa crus-galli; details: 1000 g ai/ha, visual rating, scale 0 to 100 (0 no effect, 100 complete control), 13 to 15 days
# In short: as §1
# lambsquarters = test: Test B pre-/postemergence herbicide test; format: in vivo, Chenopodium album
# In short: as §2
# morningglory [9] = test: Test A pre-/postemergence herbicide test; format: in vivo, Ipomoea spp.
# In short: as §5
# large crabgrass [10] = test: Test B pre-/postemergence herbicide test; format: in vivo, Digitaria sanguinalis
# In short: as §2
# blackgrass = test: Test B postemergence herbicide test; format: in vivo, Alopecurus myosuroides; details: scale 0 (no effect) to 100 (complete control)
# In short: as §1
# giant foxtail [11] = test: Test B pre-/postemergence herbicide test; format: in vivo, Setaria faberi
# In short: as §2
# velvetleaf [12] = test: Test A pre-/postemergence herbicide test; format: in vivo, Abutilon theophrasti
# In short: as §5
# barnyardgrass [13] = test: Test A pre-/postemergence herbicide test; format: in vivo, Echinochloa crus-galli
# In short: as §5
# morningglory [14] = test: Test B pre-/postemergence herbicide test; format: in vivo, Ipomoea coccinea
# In short: as §3
# [15] = 500 g ai/ha, visual rating 0-100, 0 no effect, 100 complete control, preemergence
# [16] = Postemergence, 500 g ai/ha, visual rating after 13 to 15 days, scale 0 (no effect) to 100 (complete control)
# [17] = postemergence, 125 g ai/ha, visual rating, scale 0 (no effect) to 100 (complete control)
# [18] = preemergence, 125 g ai/ha, 0 to 100 scale, 0 is no effect, 100 is complete control
# [19] = Postemergence, 500 g ai/ha, visual rating after 13 to 15 days
# [20] = postemergence, 125 g ai/ha, visual rating
# [21] = Postemergence, 500 g ai/ha, 0 to 100 scale, 0 no effect, 100 complete control
# [22] = Postemergence, 2000 g ai/ha, 0 to 100 scale, 0 no effect, 100 complete control
# [23] = Preemergence, 500 g ai/ha, visual rating, 0 to 100 scale (0 no effect, 100 complete control)
# [24] = Preemergence, 2000 g ai/ha, 0 to 100 scale, 0 no effect, 100 complete control
structure (smiles),measurement,setting,value
CCCOC(=O)c1cccc(NC(=O)c2cc(C(C)(C)C)nn2CC)c1C [Compound 90],"Sedge, Umbrella plant response rating",[1],50
same,"Plant response rating, Rice","rice [2]; 500 g ai/ha, visual rating 0-100, 0 no effect, 100 complete control",0
same,"Plant response rating, Rice","rice [2]; 125 g ai/ha, 0 to 100 scale, 0 is no effect, 100 is complete control",0
same,"Plant response rating, Velvetleaf",velvetleaf [3]; [15],20
same,"Plant response rating, Velvetleaf",velvetleaf [3]; [16],30
same,Velvetleaf plant response rating,velvetleaf [3]; [17],10
same,"Plant response rating, Velvetleaf",velvetleaf [3]; [18],0
same,Ducksalad plant response rating,ducksalad,30
same,"Plant response rating, Barnyardgrass",barnyardgrass [4]; [15],20
same,"Plant response rating, Barnyardgrass",barnyardgrass [4]; [16],30
same,Barnyardgrass plant response rating,barnyardgrass [4]; [17],0
same,"Plant response rating, Barnyardgrass",barnyardgrass [4]; [18],10
same,"Plant response rating, Pigweed",pigweed; [15],80
same,"Plant response rating, Pigweed",pigweed; [16],40
same,Pigweed plant response rating,pigweed; [17],30
same,"Plant response rating, Pigweed",pigweed; [18],10
same,"Plant response rating, Corn",corn; [15],20
same,"Plant response rating, Corn",corn; [16],10
same,Corn plant response rating,corn; [17],10
same,"Plant response rating, Corn",corn; [18],0
same,"Plant response rating, Cocklebur",cocklebur; [15],0
same,"Plant response rating, Cocklebur",cocklebur; [16],60
same,Cocklebur plant response rating,cocklebur; [17],10
same,"Plant response rating, Cocklebur",cocklebur; [18],0
same,"Plant response rating, Wheat",wheat; [19],10
same,Wheat plant response rating,wheat; [20],10
same,Rice plant response rating,rice [5],10
same,"Plant response rating, Surinam Grass",Surinam grass; [15],20
same,"Plant response rating, Surinam Grass",Surinam grass; [16],10
same,Surinam Grass plant response rating,Surinam grass; [17],10
same,"Plant response rating, Surinam Grass",Surinam grass; [18],0
same,"Foxtail, Giant plant response rating",giant foxtail [6]; [21],20
same,"Plant response rating, Foxtail, Giant",giant foxtail [6]; [22],20
same,"Foxtail, Giant plant response rating",giant foxtail [6]; [23],25
same,"Foxtail, Giant plant response rating",giant foxtail [6]; [24],60
same,"Crabgrass, Large plant response rating",large crabgrass [7]; [21],15
same,"Plant response rating, Crabgrass, Large",large crabgrass [7]; [22],25
same,"Crabgrass, Large plant response rating",large crabgrass [7]; [23],35
same,"Crabgrass, Large plant response rating",large crabgrass [7]; [24],75
same,"Plant response rating, Oat, Wild",wild oat; [19],30
same,"Oat, Wild plant response rating",wild oat; [20],10
same,Pigweed plant response rating,redroot pigweed; [21],20
same,"Plant response rating, Pigweed",redroot pigweed; [22],40
same,Pigweed plant response rating,redroot pigweed; [23],25
same,Pigweed plant response rating,redroot pigweed; [24],70
same,Barnyardgrass plant response rating,barnyardgrass [8],10
same,"Plant response rating, Lambsquarters",lambsquarters; [15],90
same,"Plant response rating, Lambsquarters",lambsquarters; [16],50
same,Lambsquarters plant response rating,lambsquarters; [17],50
same,"Plant response rating, Lambsquarters",lambsquarters; [18],0
same,Morningglory plant response rating,morningglory [9]; [21],10
same,"Plant response rating, Morningglory",morningglory [9]; [22],10
same,Morningglory plant response rating,morningglory [9]; [23],0
same,Morningglory plant response rating,morningglory [9]; [24],30
same,"Plant response rating, Crabgrass, Large",large crabgrass [10]; [15],70
same,"Plant response rating, Crabgrass, Large",large crabgrass [10]; [16],10
same,"Crabgrass, Large plant response rating",large crabgrass [10]; [17],10
same,"Plant response rating, Crabgrass, Large",large crabgrass [10]; [18],10
same,"Plant response rating, Blackgrass",blackgrass; [19],10
same,Blackgrass plant response rating,blackgrass; [20],0
same,"Plant response rating, Foxtail, Giant",giant foxtail [11]; [15],60
same,"Plant response rating, Foxtail, Giant",giant foxtail [11]; [16],10
same,"Foxtail, Giant plant response rating",giant foxtail [11]; [17],10
same,"Plant response rating, Foxtail, Giant",giant foxtail [11]; [18],10
same,Velvetleaf plant response rating,velvetleaf [12]; [21],10
same,"Plant response rating, Velvetleaf",velvetleaf [12]; [22],30
same,Velvetleaf plant response rating,velvetleaf [12]; [23],20
same,Velvetleaf plant response rating,"velvetleaf [12]; Preemergence, 2000 g ai/ha, visual rating, 0 to 100 scale (0 no effect, 100 complete control)",35
same,Barnyardgrass plant response rating,barnyardgrass [13]; [21],20
same,"Plant response rating, Barnyardgrass",barnyardgrass [13]; [22],20
same,Barnyardgrass plant response rating,barnyardgrass [13]; [23],20
same,Barnyardgrass plant response rating,barnyardgrass [13]; [24],50
same,"Plant response rating, Morningglory",morningglory [14]; [15],10
same,"Plant response rating, Morningglory",morningglory [14]; [16],40
same,Morningglory plant response rating,morningglory [14]; [17],10
same,"Plant response rating, Morningglory",morningglory [14]; [18],0
